Drawing on patent US11065253B2, “Arylquinazolines” (Merck Patent GmbH, priority 2013, dated 2021), this text covers IC50 for 31 compounds.

Each structure is given as a SMILES string. Where only a bound is given, the exact number is not on record here.

One experiment concerns phospho-serine 2056 DNA-PK in HCT116 cells. Briefly: DNA-PK phosphorylation at serine 2056 (cellular), ELISA in bleomycin-treated HCT116 cells. Type of experiment: cell-based. To be noted: Homo sapiens, HCT-116, 6 h, cellular; HCT116 cells, 10 μM bleomycin, six hours; read-out: IC50 pDNA-PK. As for the experimental part:
HCT116 cells were cultivated at 37° C. and 10% CO2 in MEM alpha medium with 10% of foetal calf serum and 2 mM glutamine. The cells were detached from the base of the culture vessels with the aid of trypsin/EDTA, centrifuged off in centrifuge tubes, taken up in fresh medium, and the cell density was determined. 100,000 cells were sown in 1 ml of culture medium per cavity of a 24-well cell culture plate and cultivated overnight. Next day, 10 μM bleomycin (DNA intercalator and inductor of DNA double-strand breaks) and test substances in fresh culture medium were added to the cells, and these were cultivated for a further six hours. […] The 96-well ELISA plates were subsequently treated with a detection antibody (Abcam ab79444: total DNA-PK) and a streptavidin-HRP conjugate. The development of the enzymatic reaction was carried out with the aid of a chemiluminescent reagent, the chemiluminescence was measured with the aid of a Mithras LB940. The signals with the phospho-DNA-PK-specific antibody were standardised to the signal with the antibody against the total protein DNA-PKc. […] The DMSO control was used as blank.
(In an ELISA, binding on a coated surface is turned into a signal by an enzyme label.)
The IC50 is the midpoint of a concentration-inhibition curve. Take `OC(c1ccc(Cl)nn1)c1cc(-c2ncnc3cc(N4CCOCC4)ccc23)c(F)cc1F` (stereo not shown) [Example 49, (6-Chloro-pyridazin-3-yl)-[2,4-difluoro-5-(7-morpholin-4-yl-quinazolin-4-yl)phenyl]-methanol]: the IC50 was in the range of 500 to 5000 nM. On the same count and under the same terms, with `OC(c1ccc2nccn2n1)c1cc(-c2ncnc3cc(N4CCOCC4)ccc23)c(F)cc1Cl` (stereo not shown) [Example 56, [2-Chloro-4-fluoro-5-(7-morpholin-4-yl-quinazolin-4-yl)phenyl]-imidazo[1,2-b]pyridazin-6-ylmethanol] the figure was 500 to 5000 nM.

The experiment is the same for the next values; noted with them: Homo sapiens, HCT-116, cellular DNA-PK phosphorylation at serine 2056, HCT116 cells; read-out: IC50 pDNA-PK.
For `COc1cnc(C(O)c2ccc(F)c(-c3ncnc4cc(N5CCOCC5)ccc34)c2)c(Br)c1` (stereo not shown) [Example 473, (3-bromo-5-methoxy-pyridin-2-yl)-[4-fluoro-3-(7-morpholin-4-yl-quinazolin-4-yl)-phenyl]methanol], the IC50 was less than 500 nM. Same read-out and setting: with `COc1nccnc1C(O)c1cc(-c2ncnc3cc(N4CCOCC4)ccc23)c(F)cc1Cl` (stereo not shown) [Example 468, [2-Chloro-4-fluoro-5-(7-morpholin-4-yl-quinazolin-4-yl)-phenyl]-(3-methoxy-pyrazin-2-yl)-methanol] the figure was less than 500 nM; with `OC(c1ccc(F)c(-c2ncnc3cc(N4CCOCC4)ccc23)c1)c1ncccc1Br` (stereo not shown) [Example 478, (3-bromo-pyridin-2-yl)-[4-fluoro-3-(7-morpholin-4-yl-quinazolin-4-yl)-phenyl]methanol], less than 500 nM. In the case of `Cn1c(C(O)c2ccc(F)c(-c3ncnc4cc(N5CCOCC5)ccc34)c2)cccc1=O` (stereo not shown) [Example 375, 6-{[4-Fluoro-3-(7-morpholin-4-yl-quinazolin-4-yl)-phenyl]hydroxy-methyl}-1-methyl-1H-pyridin-2-one (Ena 2)], the IC50 is 500 to 5000 nM.

Consider `Cn1ncc2c(C(O)c3ccc(F)c(-c4ncnc5cc(N6CCOCC6)ccc45)c3)ncnc21` (stereo not shown) [Example 404, [4-Fluoro-3-(7-morpholin-4-yl-quinazolin-4-yl)-phenyl]-(1-methyl-1H-pyrazolo[3,4-d}-pyrimidin-4-yl)-methanol], for which the IC50 was less than 500 nM. With `Cn1cnc2c(C(O)c3cc(-c4ncnc5cc(N6CCOCC6)ccc45)c(F)cc3F)ncnc21` (stereo not shown) [Example 421, [2,4-Difluoro-5-(7-morpholin-4-yl-quinazolin-4-yl)-phenyl]-(9-methyl-9H-purin-6-yl)-methanol], the 50% inhibitory concentration (IC50) lay within 500 to 5000 nM. Still for that read-out and setting: then `OC(c1cc(-c2ncnc3cc(N4CCOCC4)ccc23)ccc1Cl)c1ncnc2ccoc12` (stereo not shown) [Example 414, [2-Chloro-5-(7-morpholin-4-yl-quinazolin-4-yl)-phenyl]furo[3,2-d}-pyrimidin-4-yl-methanol (Ena 2)], with less than 500 nM; and `Cn1cnc2ccnc(C(O)c3ccc(F)c(-c4ncnc5cc(N6CCOCC6)ccc45)c3)c21` (stereo not shown) [Example 461, [4-Fluoro-3-(7-morpholin-4-yl-quinazolin-4-yl)-phenyl]-(3-methyl-3H-imidazo[4,5-c]-pyridin-4-yl)methanol], with less than 500 nM. On to `OC(c1ccc(F)c(-c2ncnc3cc(N4CCOCC4)ccc23)c1)c1nnc2ccccn12` (stereo not shown) [Example 399, [4-Fluoro-3-(7-morpholin-4-yl-quinazolin-4-yl)-phenyl]-[1,2,4]-triazolo[4,3-a]pyridin-3-ylmethanol], for which the IC50 fell in the range of 500 to 5000 nM.

The same experiment, now with this note: Homo sapiens, HCT-116, phospho-serine 2056 DNA-PK, bleomycin-treated HCT116 cells; class symbols A-D; read-out: IC50 pDNA-PK.
As to `N#CCCOc1ccc(C(O)c2cc(-c3ncnc4cc(N5CCOCC5)ccc34)c(F)cc2Cl)nn1` (stereo not shown) [Example 107, 3-(6-{[2-Chloro-4-fluoro-5-(7-morpholin-4-yl-quinazolin-4-yl)-phenyl]hydroxy-methyl}pyridazin-3-yl-oxy)propionitrile], the IC50 lay in the range of 500 to 5000 nM. Still for that read-out and setting: with `OC(c1ccc(OC2COC2)nn1)c1cc(-c2ncnc3cc(N4CCOCC4)ccc23)c(F)cc1Cl` (stereo not shown) [Example 100, [2-Chloro-4-fluoro-5-(7-morpholin-4-yl-quinazolin-4-yl)-phenyl]-[6-(oxetan-3-yloxy)pyridazin-3-yl]-methanol] the figure was less than 500 nM; with `COc1ccc(C(O)c2cc(-c3nc(Cl)nc4cc(N5CCOCC5)ccc34)c(F)cc2Cl)nn1` (stereo not shown) [Example 132, [2-Chloro-5-(2-chloro-7-morpholin-4-yl-quinazolin-4-yl)-4-fluorophenyl]-(6-methoxy-pyridazin-3-yl)-methanol], 500 to 5000 nM. Same read-out and setting: then `OC(c1ccccn1)c1cc(-c2ncnc3cc(N4CCOCC4)ccc23)c(F)cc1F` (stereo not shown) [Example 218, [2,4-Difluoro-5-(7-morpholin-4-yl-quinazolin-4-yl)-phenyl]pyridin-2-yl-methanol], with less than 500 nM; and `OCc1csc([C@@H](O)c2cc(-c3ncnc4cc(N5CCOCC5)ccc34)c(F)cc2Cl)n1` [Example 185, (S)-[2-Chloro-4-fluoro-5-(7-morpholin-4-yl-quinazolin-4-yl)-phenyl]-(4-hydroxymethyl-thiazol-2-yl)-methanol], with 500 to 5000 nM; and `Cc1csc(C(O)c2cc(-c3ncnc4cc(N5CCOCC5)ccc34)c(F)cc2Cl)n1` (stereo not shown) [Example 181, [2-Chloro-4-fluoro-5-(7-morpholin-4-yl-quinazolin-4-yl)-phenyl]-(4-methyl-thiazol-2-yl)-methanol], with 500 to 5000 nM. For `CC(O)c1csc(C(O)c2cc(-c3ncnc4cc(N5CCOCC5)ccc34)c(F)cc2Cl)n1` (stereo not shown) [Example 201, 1-(2-{[2-Chloro-4-fluoro-5-(7-morpholin-4-yl-quinazolin-4-yl)-phenyl]hydroxy-methyl}thiazol-4-yl)-ethanol], the IC50 is 500 to 5000 nM.

Staying with this experiment, now noted: Homo sapiens, HCT-116, phospho-serine 2056 DNA-PK, bleomycin-treated HCT116 cells; read-out: IC50 pDNA-PK.
For the compound `NC(=O)C(c1ccc(F)c(-c2ncnc3cc(N4CCOCC4)ccc23)c1)c1ncccc1Cl` (stereo not shown) [Example 313, 2-(3-Chloro-pyridin-2-yl)-2-[4-fluoro-3-(7-morpholin-4-yl-quinazolin-4-yl)-phenyl]acetamide], the IC50 is 5000 to 10000 nM. Turning to `NC(=O)C(c1cc(-c2ncnc3cc(N4CCOCC4)ccc23)c(F)cc1Cl)c1ncccc1Cl` (stereo not shown) [Example 289, 2-[2-Chloro-4-fluoro-5-(7-morpholin-4-yl-quinazolin-4-yl)-phenyl]-2-(3-chloro-pyridin-2-yl)-acetamide], the IC50 was 500 to 5000 nM. With `Cc1cnc(C(C(N)=O)c2ccc(F)c(-c3ncnc4cc(N5CCOCC5)ccc34)c2)c(C)n1` (stereo not shown) [Example 318, 2-(3,5-Dimethyl-pyrazin-2-yl)-2-[4-fluoro-3-(7-morpholin-4-yl-quinazolin-4-yl)-phenyl]acetamide], the IC50 was 10000 to 30000 nM. Turning to `Cc1nccnc1C(O)c1ccc(F)c(-c2ncnc3cc(N4CCOCC4)cnc23)c1` (stereo not shown) [Example 237, [4-Fluoro-3-(7-morpholin-4-yl-pyrido[3,2-d}-pyrimidin-4-yl)-phenyl]-(3-methyl-pyrazin-2-yl)-methanol], the IC50 was less than 500 nM. Same read-out and setting: then `OC(c1ccc(F)c(-c2ncnc3cc(N4CCOCC4)ccc23)c1)c1nncc2sccc12` (stereo not shown) [Example 333, [4-Fluoro-3-(7-morpholin-4-yl-quinazolin-4-yl)-phenyl]thieno[2,3-d}-pyridazin-4-yl-methanol], with less than 500 nM. With `Cc1nccnc1C(C(N)=O)c1cc(-c2ncnc3cc(N4CCOCC4)ccc23)c(F)cc1F` (stereo not shown) [Example 329, 2-[2,4-Difluoro-5-(7-morpholin-4-yl-quinazolin-4-yl)-phenyl]-2-(3-methyl-pyrazin-2-yl)-acetamide], the IC50 was 5000 to 10000 nM. Take `COC(c1ccc(F)c(-c2ncnc3cc(N4CCOCC4)ccc23)c1)c1nccnc1C` (stereo not shown) [Example 353, 4-{2-Fluoro-5-[methoxy-(3-methyl-pyrazin-2-yl)methyl]-phenyl}-7-morpholin-4-ylquinazoline (Ena 2)]: the IC50 fell in the range of 10000 to 30000 nM. For the compound `OC(c1cc(-c2ncnc3cc(N4CCOCC4)ccc23)c(F)cc1F)c1nncc2ccsc12` (stereo not shown) [Example 342, [2,4-Difluoro-5-(7-morpholin-4-yl-quinazolin-4-yl)-phenyl]thieno[2,3-d}-pyridazin-7-yl-methanol], the IC50 is less than 500 nM.

The experiment is the same for the next values; noted with them: cellular DNA-PK phosphorylation at serine 2056, HCT116 cells; read-out: IC50 pDNA-PK.
As to `Cn1c(C(O)c2cc(-c3ncnc4cc(N5CCOCC5)ccc34)c(F)cc2F)cccc1=O` (stereo not shown) [Example 436, 6-{[2,4-Difluoro-5-(7-morpholin-4-yl-quinazolin-4-yl)-phenyl]hydroxy-methyl}-1-methyl-1H-pyridin-2-one], the IC50 lay in the range of 500 to 5000 nM.

As for `COc1nccnc1[C@@H](O)c1cc(-c2ncnc3cc(N4CCOCC4)ccc23)c(F)cc1Cl` [Example 456, (S)-[2-Chloro-4-fluoro-5-(7-morpholin-4-yl-quinazolin-4-yl)-phenyl]-(3-methoxy-pyrazin-2-yl)-methanol], the IC50 is less than 500 nM. Still for that read-out and setting: with `COc1nccnc1C(O)c1cc(-c2ncnc3cc(N4CCOCC4)ccc23)c(F)cc1F` (stereo not shown) [Example 454] the figure was less than 500 nM; with `COc1cncnc1C(O)c1cc(-c2ncnc3cc(N4CCOCC4)ccc23)ccc1Cl` (stereo not shown) [Example 413, [2-Chloro-5-(7-morpholin-4-yl-quinazolin-4-yl)-phenyl]-(5-methoxy-pyrimidin-4-yl)-methanol], 500 to 5000 nM.

The same experiment, now with this note: phospho-serine 2056 DNA-PK, bleomycin-treated HCT116 cells; read-out: IC50 pDNA-PK.
Take `OC(c1ccc(F)c(-c2ncnc3cc(N4CCOCC4)ccc23)c1)c1nnc2ccccn12` (stereo not shown) [Example 343, [4-Fluoro-3-(7-morpholin-4-yl-quinazolin-4-yl)-phenyl]-[1,2,4]-triazolo[4,3-a]pyridin-3-ylmethanol (Ena 2)]: the half-inhibitory concentration (IC50) was in the range of 500 to 5000 nM.
